The text below walks through data of PubChem BioAssay AID1845228.

For this data set the following is noted: pampa; 60.0 min; 50.0 µM.
As for `CCOc1ccc(C2C(C(=O)Nc3ccccc3OC)=C(C)Nc3c(C(=O)Nc4cccc(C)c4)cnn32)cc1` (stereo unspecified), the Papp was 45 ×10⁻⁶ cm/s. As for `O=C(NCCc1cnc[nH]1)c1ccc(-c2ncc3cnc(-c4cccc(F)c4)cn23)cc1`, the Papp was < 1 ×10⁻⁶ cm/s. To `CN(C)CCn1cnc2c(c(-c3ccccc3)c(-c3ccccc3)n2CCc2ccccc2)c1=N` belongs 148 ×10⁻⁶ cm/s; to `Nc1nc2c(c(N3CCNCC3)n1)CCC1=C2[C@@H]2CCCC[C@@H]2O1`, 30 ×10⁻⁶ cm/s; to `CC(=O)OCC1=C(C(=O)O)N2C(=O)C(NC(=O)CCCC(N)C(=O)O)C2SC1` (stereo unspecified), 2 ×10⁻⁶ cm/s.

In turn, `COC(=O)C[C@@H](C(=O)OC)n1cnc2c(c(-c3ccccc3)cn2Cc2ccccc2)c1=N` displayed a Papp of 26 ×10⁻⁶ cm/s.

The compound `COC(=O)[C@]12CCC(C)(C)C[C@@H]1[C@@H]1C(=O)C=C3[C@@]4(C)C=C(C#N)C(=O)C(C)(C)[C@@H]4CC[C@@]3(C)[C@]1(C)CC2` came in with a Papp of 8 ×10⁻⁶ cm/s. To `CN(C)CC1CCOC1(c1ccccc1)c1ccccc1` (stereo unspecified) belongs 47 ×10⁻⁶ cm/s. Compound `CCO[C@@H]1OC(=O)C[C@@H]1NC(=O)[C@@H]1CCCN1C(=O)[C@@H](NC(=O)c1ccc(N)c(Cl)c1)C(C)(C)C` gave an apparent permeability coefficient (Papp) of 4 ×10⁻⁶ cm/s. Against the preceding compound, the Papp is about 12-fold lower. The value for `CNc1ncc(-c2ccc3c(=O)c(C(=O)O)cn(C4CC4)c3c2C)cc1C` was 3 ×10⁻⁶ cm/s. The value for `CC1=C(C(=O)O)N2C(=O)[C@@H](N)[C@H]2SC1` was < 1 ×10⁻⁶ cm/s.

As to `COc1cc2c(Nc3ccc(Cl)c(Cl)c3F)ncnc2cc1OCC1C[C@@H]2CN(C)C[C@@H]2C1` (stereo partly specified), the Papp is > 300 ×10⁻⁶ cm/s. To `CC(C)C[C@H](NC(=O)CNC(=O)c1cc(Cl)ccc1Cl)B1OC(=O)C(CC(=O)O)(CC(=O)O)O1` belongs < 1 ×10⁻⁶ cm/s; to `CC(=O)OC(C)OC(=O)C(C)c1ccc(-c2ccccc2)c(F)c1` (stereo unspecified), > 300 ×10⁻⁶ cm/s. The value for `O=C(NCc1cnccn1)c1ccc(-c2ncc3cnc(-c4cccc(F)c4)cn23)cc1` was 94 ×10⁻⁶ cm/s.

As for `CC#CC(=O)N1CCC[C@H]1c1nc(-c2ccc(C(=O)Nc3ccccn3)cc2)c2c(N)nccn12`, the apparent permeability coefficient (Papp) is < 1 ×10⁻⁶ cm/s.

Consider `O=C1/C(=C\c2ccccc2)C[C@@]2(O)[C@H]3Cc4ccc(O)c5c4[C@@]2(CCN3CC2CC2)[C@@H]1O5`, for which the apparent permeability (Papp) came out at 158 ×10⁻⁶ cm/s. The value for `COc1ccc2c(c1)C(c1ccc(F)cc1)=C(CN1CCCC1)CO2` was 100 ×10⁻⁶ cm/s; that for `CC(C)N(CCCNC(=O)Nc1ccc(C(C)(C)C)cc1)C[C@H]1O[C@@H](n2cc(Br)c3c(N)ncnc32)[C@H](O)[C@@H]1O` was 6.2 ×10⁻⁶ cm/s; that for `CN(C)CCn1cnc2c(c(-c3ccccc3)c(-c3ccccc3)n2Cc2ccccc2)c1=N` was 76 ×10⁻⁶ cm/s.

`COc1ccc2c(c[n+](C)c3c4cc5c(cc4ccc23)OCO5)c1OC` came in with an apparent permeability coefficient (Papp) of 121 ×10⁻⁶ cm/s. The value for `COc1ccc(Cn2c(-c3ccccc3)c(-c3ccccc3)c3c(=N)n(CC4CCCO4)cnc32)cc1` (stereo unspecified) was 297 ×10⁻⁶ cm/s; that for `CCCN[C@H]1CCc2nc(N)sc2C1` was 4 ×10⁻⁶ cm/s; that for `O=C(NCCCO)c1ccc(-c2ncc3cnc(-c4cccc(F)c4)cn23)cc1` was 46 ×10⁻⁶ cm/s.

In turn, `Nc1nc2c(s1)CCN(Cc1ccc(Cl)cc1)CC2` gave an apparent permeability coefficient (Papp) of 127 ×10⁻⁶ cm/s. To `COC(=O)N[C@H](C(=O)N1CCC[C@H]1C(=O)Nc1ccc([C@@H]2CC[C@@H](c3ccc(NC(=O)[C@@H]4CCCN4C(=O)[C@@H](NC(=O)OC)C(C)C)cc3)N2c2ccc(C(C)(C)C)cc2)cc1)C(C)C` belongs < 1 ×10⁻⁶ cm/s; to `Oc1ccc(/C=C/c2cc(O)cc(O)c2)cc1`, 5 ×10⁻⁶ cm/s. In turn, `CC(=CCCC1=CCC(C2=CC(=O)OC2O)OC1O)CCC1=C(C)CCCC1(C)C` (stereo unspecified) came in with an apparent permeability (Papp) of 9.8 ×10⁻⁶ cm/s. The value for `COc1cc([C@@H]2c3cc4c(cc3[C@@H](O[C@@H]3O[C@@H]5CO[C@@H](C)O[C@@H]5[C@H](O)[C@@H]3O)[C@H]3COC(=O)[C@H]23)OCO4)cc(OC)c1O` was 3 ×10⁻⁶ cm/s; that for `Cc1ccccc1CN1CCn2c(nn(CC3COc4ccccc4O3)c2=O)C1=O` (stereo unspecified) was 57.7 ×10⁻⁶ cm/s; that for `CC[C@@H]1C[C@]1(NC(=O)[C@@H]1C[C@@H]2CN1C(=O)[C@H](C(C)(C)C)NC(=O)OCC(C)(C)CCCCc1cccc3c1CN(C3)C(=O)O2)C(=O)NS(=O)(=O)C1CC1` was 10 ×10⁻⁶ cm/s.

By Papp is commonly meant a coefficient for how fast a substance crosses the barrier. The low end stands for poor permeation, the high end for ready permeation.
